Experimental data reported in US20240092773A1, “DIHYDRO-CYCLOPENTA-ISOQUINOLINE SULFONAMIDES DERIVATIVES” (UCB Biopharma SRL, priority 2019, published 2024).
pIC50: −log10 of the molar value.

Molecular target: IgE-Tb binding to soluble IgE receptor FcεR1α (Y131A mutation) (Homo sapiens, UniProt P01854, N146Q/N252Q)
Assay: In vitro FRET assay: inhibition of binding of IgE-Tb to receptor FcεR1α-Y131A-AF488
Details: read-out: FRET IC50 range

Sequence of IgE-Tb binding to soluble IgE receptor FcεR1α (Y131A mutation) (P01854 whole entry N146Q/N252Q, looked up): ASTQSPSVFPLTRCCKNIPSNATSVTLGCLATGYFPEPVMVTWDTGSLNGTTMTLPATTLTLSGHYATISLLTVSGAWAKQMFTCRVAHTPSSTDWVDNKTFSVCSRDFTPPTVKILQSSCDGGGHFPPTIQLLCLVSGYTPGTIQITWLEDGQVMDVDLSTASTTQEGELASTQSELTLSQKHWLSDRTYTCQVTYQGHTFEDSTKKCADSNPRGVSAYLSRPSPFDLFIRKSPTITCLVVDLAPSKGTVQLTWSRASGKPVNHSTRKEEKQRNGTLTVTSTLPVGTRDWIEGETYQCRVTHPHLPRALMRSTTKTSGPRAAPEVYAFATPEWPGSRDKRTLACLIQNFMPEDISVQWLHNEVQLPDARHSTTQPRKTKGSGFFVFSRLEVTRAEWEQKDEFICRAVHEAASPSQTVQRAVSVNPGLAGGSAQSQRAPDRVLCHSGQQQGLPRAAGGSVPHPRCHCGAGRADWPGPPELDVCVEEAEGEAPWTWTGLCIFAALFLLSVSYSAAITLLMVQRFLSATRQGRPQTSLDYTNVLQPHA

Q: How did the pIC50 turn out when CC(C)(F)CNS(=O)(=O)c1cc2c(c3cnc(C4CC4)cc13)C(Nc1cccnc1)CC2 (centres unmarked) [Example 32, 3-cyclopropyl-N-(2-fluoro-2-methylpropyl)-9-(pyridin-3-ylamino)-8,9-dihydro-7H-cyclopenta[h]isoquinoline-5-sulfonamide] was run?
A: 7.00 to 7.30

Q: How did the pIC50 turn out when CC(C)CNS(=O)(=O)c1cc2c(c3cnc(C4CC4)cc13)CCC2Nc1c(Nc2cccnc2)c(=O)c1=O (centres unmarked) [Example 84, 3-cyclopropyl-7-[[3,4-dioxo-2-(pyridin-3-ylamino)cyclobuten-1-yl]amino]-N-(2-methylpropyl)-8,9-dihydro-7H-cyclopenta[h]isoquinoline-5-sulfonamide] was run?
A: 7.30 to 8.00

Q: With Cn1ncc2c(NC3CCc4cc(S(=O)(=O)NCC(C)(C)F)c5cc(C6CC6)ncc5c43)cncc21 (centres unmarked) [Example 43, 3-cyclopropyl-N-(2-fluoro-2-methylpropyl)-9-[(1-methylpyrazolo[3,4-c]pyridin-4-yl)amino]-8,9-dihydro-7H-cyclopenta[h]isoquinoline-5-sulfonamide] as the compound, how does the pIC50 read?
A: 5.70 to 7.00

Q: How did the pIC50 turn out when CC(C)(F)CNS(=O)(=O)c1cc2c(c3cnc(C4CC4)cc13)CC[C@@H]2NC(=O)C1CN(C(=O)OC(C)(C)C)C1 (single isomer, unassigned) [Example 56, tert-butyl 3-[[(7R*)-3-cyclopropyl-5-[(2-fluoro-2-methylpropyl)sulfamoyl]-8,9-dihydro-7H-cyclopenta[h]isoquinolin-7-yl]carbamoyl]azetidine-1-carboxylate] was run?
A: 5.70 to 7.00

Q: CC(C)CNS(=O)(=O)c1cc2c(c3cnc(C4CC4)cc13)CCC2NS(C)(=O)=O (centres unmarked) [Example 83, 3-cyclopropyl-7-(methanesulfonamido)-N-(2-methylpropyl)-8,9-dihydro-7H-cyclopenta[h]isoquinoline-5-sulfonamide] was tested. Which pIC50 did it give?
A: 5.70 to 7.00

Q: How did the pIC50 turn out when CCn1cnnc1NC1CCc2cc(S(=O)(=O)NCC(C)C)c3cc(C4CC4)ncc3c21 (single isomer, unassigned) [Example 73, (9R*)-3-cyclopropyl-9-[(4-ethyl-1,2,4-triazol-3-yl)amino]-N-(2-methylpropyl)-8,9-dihydro-7H-cyclopenta[h]isoquinoline-5-sulfonamide] was run?
A: 7.30 to 8.00

Q: How did the pIC50 turn out when Cc1nnc(-c2ccc(NC3CCc4cc(S(=O)(=O)NCC(C)(C)F)c5cc(C6CC6)ncc5c43)cn2)o1 (centres unmarked) [Example 76, 3-cyclopropyl-N-(2-fluoro-2-methylpropyl)-9-[[6-(5-methyl-1,3,4-oxadiazol-2-yl)pyridin-3-yl]amino]-8,9-dihydro-7H-cyclopenta[h]isoquinoline-5-sulfonamide] was run?
A: 5.70 to 7.00

Q: With CC(C)CNS(=O)(=O)c1cc2c(c3cnc(C4CC4)cc13)CCC2n1cnnc1Nc1cccnc1 (centres unmarked) [Example 91, 3-cyclopropyl-N-(2-methylpropyl)-7-[3-(pyridin-3-ylamino)-1,2,4-triazol-4-yl]-8,9-dihydro-7H-cyclopenta[h]isoquinoline-5-sulfonamide] as the compound, how does the pIC50 read?
A: 7.30 to 8.00

Q: How did the pIC50 turn out when CCNc1c(NC2CCc3c2cc(S(=O)(=O)NCC(C)C)c2cc(C4CC4)ncc32)c(=O)c1=O (single isomer, unassigned) [Example 53, (7R*)-3-cyclopropyl-7-[[2-(ethylamino)-3,4-dioxocyclobuten-1-yl]amino]-N-(2-methylpropyl)-8,9-dihydro-7H-cyclopenta[h]isoquinoline-5-sulfonamide] was run?
A: 7.30 to 8.00

Q: How did the pIC50 turn out when CC(C)(F)CNS(=O)(=O)c1cc2c(c3cnc(C4CC4)cc13)CCC2NC1=CC(=O)C1(C)C (centres unmarked) [Example 60, 3-cyclopropyl-7-[(4,4-dimethyl-3-oxocyclobuten-1-yl)amino]-N-(2-fluoro-2-methylpropyl)-8,9-dihydro-7H-cyclopenta[h]isoquinoline-5-sulfonamide] was run?
A: 5.70 to 7.00

Q: With CC(C)(F)CNS(=O)(=O)c1cc2c(c3cnc(C4CC4)cc13)CC[C@@H]2NC(=O)c1cccnc1 (single isomer, unassigned) [Example 9, N-[(7R*)-3-cyclopropyl-5-[(2-fluoro-2-methylpropyl)sulfamoyl]-8,9-dihydro-7H-cyclopenta[h]isoquinolin-7-yl]pyridine-3-carboxamide] as the compound, how does the pIC50 read?
A: 5.70 to 7.00

Q: Cc1cc(C(=O)NC2CN(C3CCc4c3cc(S(=O)(=O)NCC(C)(C)F)c3cc(C5CC5)ncc43)C2)n(C)n1 (centres unmarked) [Example 59, N-[1-[3-cyclopropyl-5-[(2-fluoro-2-methylpropyl)sulfamoyl]-8,9-dihydro-7H-cyclopenta[h]isoquinolin-7-yl]azetidin-3-yl]-2,5-dimethylpyrazole-3-carboxamide] was tested. Which pIC50 did it give?
A: 5.70 to 7.00

Q: How did the pIC50 turn out when CC(C)CNS(=O)(=O)c1cc2c(c3cnc(C4CC4)cc13)CCC2N (centres unmarked) [Example 50, 7-amino-3-cyclopropyl-N-(2-methylpropyl)-8,9-dihydro-7H-cyclopenta[h]isoquinoline-5-sulfonamide] was run?
A: 5.70 to 7.00

Q: CC(C)CNS(=O)(=O)c1cc2c(c3cnc(C4CC4)cc13)C(n1cnnc1Nc1cncc(F)c1)CC2 (centres unmarked) [Example 6, 3-cyclopropyl-9-[3-[(5-fluoro-3-pyridyl)amino]-1,2,4-triazol-4-yl]-N-isobutyl-8,9-dihydro-7H-cyclopenta[h]isoquinoline-5-sulfonamide] was tested. Which pIC50 did it give?
A: 5.70 to 7.00

Q: How did the pIC50 turn out when CCNc1nncn1C1CCc2c1cc(S(=O)(=O)NCC(C)C)c1cc(C3CC3)ncc21 (single isomer, unassigned) [Example 52, (7R*)-3-cyclopropyl-7-[3-(ethylamino)-1,2,4-triazol-4-yl]-N-(2-methylpropyl)-8,9-dihydro-7H-cyclopenta[h]isoquinoline-5-sulfonamide] was run?
A: 7.30 to 8.00

Q: How did the pIC50 turn out when CC(C)(F)CNS(=O)(=O)c1cc2c(c3cnc(C4CC4)cc13)CCC2Oc1cccnc1 (centres unmarked) [Example 94, 3-cyclopropyl-N-(2-fluoro-2-methylpropyl)-7-pyridin-3-yloxy-8,9-dihydro-7H-cyclopenta[h]isoquinoline-5-sulfonamide] was run?
A: 5.70 to 7.00

Q: Cc1cc(-n2cnnc2NC2CCc3c2cc(S(=O)(=O)NCC(C)(C)F)c2cc(C4CC4)nnc32)n(C)n1 (centres unmarked) [Example 24, 3-cyclopropyl-7-[[4-(2,5-dimethylpyrazol-3-yl)-1,2,4-triazol-3-yl]amino]-N-(2-fluoro-2-methylpropyl)-8,9-dihydro-7H-cyclopenta[h]cinnoline-5-sulfonamide] was tested. Which pIC50 did it give?
A: 7.30 to 8.00

Q: How did the pIC50 turn out when Cc1cc(NC(=S)NC2CCc3c2cc(S(=O)(=O)NCC(C)(C)F)c2cc(C4CC4)nnc32)n(C)n1 (centres unmarked) [Example 23, 1-[3-cyclopropyl-5-[(2-fluoro-2-methylpropyl)sulfamoyl]-8,9-dihydro-7H-cyclopenta[h]cinnolin-7-yl]-3-(2,5-dimethylpyrazol-3-yl)thiourea] was run?
A: 7.30 to 8.00

Q: Cn1ncc2c(NC3CCc4c3cc(S(=O)(=O)NCC(C)(C)F)c3cc(C5CC5)ncc43)cncc21 (centres unmarked) [Example 41, 3-cyclopropyl-N-(2-fluoro-2-methylpropyl)-7-[(1-methylpyrazolo[3,4-c]pyridin-4-yl)amino]-8,9-dihydro-7H-cyclopenta[h]isoquinoline-5-sulfonamide] was tested. Which pIC50 did it give?
A: 7.30 to 8.00

Q: CC(C)CNS(=O)(=O)c1cc2c(c3cnc(C4CC4)cc13)C(NC(=O)Nc1ccc(Br)cc1)CC2 (centres unmarked) [Example 45, 1-(4-bromophenyl)-3-[3-cyclopropyl-5-(2-methylpropylsulfamoyl)-8,9-dihydro-7H-cyclopenta[h]isoquinolin-9-yl]urea] was tested. Which pIC50 did it give?
A: 5.70 to 7.00

Q: How did the pIC50 turn out when CC(C)CNS(=O)(=O)c1cc2c(c3cnc(C4CC4)c(F)c13)CCC2 [Example 27, 3-cyclopropyl-4-fluoro-N-(2-methylpropyl)-8,9-dihydro-7H-cyclopenta[h]isoquinoline-5-sulfonamide] was run?
A: 5.70 to 7.00

Q: CCNc1c(N[C@@H]2CCc3cc(S(=O)(=O)NCC(C)C)c4cc(C5CC5)ncc4c32)c(=O)c1=O (single isomer, unassigned) [Example 79, (9R*)-3-cyclopropyl-9-[[2-(ethylamino)-3,4-dioxocyclobuten-1-yl]amino]-N-(2-methylpropyl)-8,9-dihydro-7H-cyclopenta[h]isoquinoline-5-sulfonamide] was tested. Which pIC50 did it give?
A: 7.30 to 8.00

Q: How did the pIC50 turn out when Cc1cc(CNC(=O)NC2CCc3cc(S(=O)(=O)NCC(C)C)c4cc(C5CC5)ncc4c32)n(C)n1 (centres unmarked) [Example 46, 1-[3-cyclopropyl-5-(2-methylpropylsulfamoyl)-8,9-dihydro-7H-cyclopenta[h]isoquinolin-9-yl]-3-[(2,5-dimethylpyrazol-3-yl)methyl]urea] was run?
A: 5.70 to 7.00

Q: Cc1ccc(NC(=NC#N)NC2CCc3c2cc(S(=O)(=O)NCC(C)C)c2cc(C4CC4)ncc32)cc1 (centres unmarked) [Example 55, 2-cyano-1-[3-cyclopropyl-5-(2-methylpropylsulfamoyl)-8,9-dihydro-7H-cyclopenta[h]isoquinolin-7-yl]-3-(4-methylphenyl)guanidine] was tested. Which pIC50 did it give?
A: 5.70 to 7.00

Q: With [2H]C([2H])(NS(=O)(=O)c1cc2c(c3cnc(C4CC4)cc13)CCC2N)C(C)C (centres unmarked) [Example 34, 7-amino-3-cyclopropyl-N-(1,1-dideuterio-2-methylpropyl)-8,9-dihydro-7H-cyclopenta[h]isoquinoline-5-sulfonamide] as the compound, how does the pIC50 read?
A: 5.70 to 7.00

Q: COC(=O)c1ccc(NC2CCc3cc(S(=O)(=O)NCC(C)C)c4cc(C5CC5)ncc4c32)cn1 (centres unmarked) [Example 18, methyl 5-[[3-cyclopropyl-5-(2-methylpropylsulfamoyl)-8,9-dihydro-7H-cyclopenta[h]isoquinolin-9-yl]amino]pyridine-2-carboxylate] was tested. Which pIC50 did it give?
A: 7.30 to 8.00

Q: CC(C)(F)CNS(=O)(=O)c1cc2c(c3cnc(C4CC4)cc13)CCC2n1nccc1NC(=O)C1CC1 (centres unmarked) [Example 38, N-[2-[3-cyclopropyl-5-[(2-fluoro-2-methylpropyl)sulfamoyl]-8,9-dihydro-7H-cyclopenta[h]isoquinolin-7-yl]pyrazol-3-yl]cyclopropanecarboxamide] was tested. Which pIC50 did it give?
A: 5.70 to 7.00

Q: CC(C)CNS(=O)(=O)c1cc2c(c3cnc(C4CC4)cc13)CCC2Nc1nncn1-c1cccnc1 (centres unmarked) [Example 90, 3-cyclopropyl-N-(2-methylpropyl)-7-[(4-pyridin-3-yl-1,2,4-triazol-3-yl)amino]-8,9-dihydro-7H-cyclopenta[h]isoquinoline-5-sulfonamide] was tested. Which pIC50 did it give?
A: 5.70 to 7.00

Q: How did the pIC50 turn out when Cn1nnc(-c2ccc(NC3CCc4cc(S(=O)(=O)NCC(C)(C)F)c5cc(C6CC6)ncc5c43)cn2)n1 (centres unmarked) [Example 77, 3-cyclopropyl-N-(2-fluoro-2-methylpropyl)-9-[[6-(2-methyltetrazol-5-yl)pyridin-3-yl]amino]-8,9-dihydro-7H-cyclopenta[h]isoquinoline-5-sulfonamide] was run?
A: 7.00 to 7.30
